From the kinase profiling compilation of Christmann-Franck et al. (2016)

Legend:
Test in all cases: Caliper, Mobility shift assay off-chip
Conditions in all cases: compound 1.0 µM
[1] = biological target: ABL1 (human) (UniProt P00519)
[2] = biological target: AXL (human) (UniProt P30530)
[3] = biological target: CAMK1D (human) (UniProt Q8IU85)
[4] = biological target: CDK3 CCNE1 (human) (UniProt P24864+Q00526)
[5] = biological target: CLK3 (human) (UniProt P49761)
[6] = biological target: CSNK1D (human) (UniProt P48730)
CSNK1D (human), sequence (P48730 whole entry, looked up): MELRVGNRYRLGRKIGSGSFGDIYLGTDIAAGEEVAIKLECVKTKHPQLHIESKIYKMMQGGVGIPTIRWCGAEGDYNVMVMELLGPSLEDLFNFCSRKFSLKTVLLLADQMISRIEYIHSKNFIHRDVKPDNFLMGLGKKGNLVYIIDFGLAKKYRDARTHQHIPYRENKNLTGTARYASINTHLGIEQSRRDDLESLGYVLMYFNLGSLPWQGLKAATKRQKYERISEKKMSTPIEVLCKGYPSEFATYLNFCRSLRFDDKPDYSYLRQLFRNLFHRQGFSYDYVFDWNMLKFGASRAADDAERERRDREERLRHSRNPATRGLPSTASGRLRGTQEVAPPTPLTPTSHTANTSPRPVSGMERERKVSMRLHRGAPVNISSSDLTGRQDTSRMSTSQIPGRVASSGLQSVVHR

[7] = biological target: CSNK1G1 (human) (UniProt Q9HCP0)
[8] = biological target: DAPK3 (human) (UniProt O43293)
[9] = biological target: DMPK (human) (UniProt Q09013)
[10] = biological target: EEF2K (human) (UniProt O00418)
[11] = test system: EGFR (human), P00533 [L861Q]
[12] = biological target: EPHB4 (human) (UniProt P54760)
[13] = biological target: FER (human) (UniProt P16591)
[14] = biological target: FGR (human) (UniProt P09769)
[15] = biological target: FLT4 (human) (UniProt P35916)
[16] = biological target: GRK5 (human) (UniProt P34947)
[17] = biological target: ITK (human) (UniProt Q08881)
ITK (human), sequence (Q08881 whole entry, looked up): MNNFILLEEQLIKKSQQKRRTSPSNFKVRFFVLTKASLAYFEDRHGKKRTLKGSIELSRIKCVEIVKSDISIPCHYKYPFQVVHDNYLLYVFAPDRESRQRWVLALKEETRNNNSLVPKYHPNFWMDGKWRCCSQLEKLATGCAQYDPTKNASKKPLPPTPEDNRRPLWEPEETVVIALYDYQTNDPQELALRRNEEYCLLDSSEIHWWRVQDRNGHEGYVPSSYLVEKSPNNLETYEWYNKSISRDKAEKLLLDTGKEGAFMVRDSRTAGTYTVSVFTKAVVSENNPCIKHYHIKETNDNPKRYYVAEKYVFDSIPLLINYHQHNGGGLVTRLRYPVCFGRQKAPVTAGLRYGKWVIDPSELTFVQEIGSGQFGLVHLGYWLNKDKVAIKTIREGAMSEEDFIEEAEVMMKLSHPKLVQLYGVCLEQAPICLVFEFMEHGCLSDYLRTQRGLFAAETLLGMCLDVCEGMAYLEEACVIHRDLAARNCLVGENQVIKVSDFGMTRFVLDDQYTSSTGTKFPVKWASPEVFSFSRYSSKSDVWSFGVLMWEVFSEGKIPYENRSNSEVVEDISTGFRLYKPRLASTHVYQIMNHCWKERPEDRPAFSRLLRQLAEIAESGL

[18] = biological target: JAK3 JH1 JH2 (human) (UniProt P52333)
JAK3 JH1 JH2 (human), sequence (P52333 whole entry, looked up): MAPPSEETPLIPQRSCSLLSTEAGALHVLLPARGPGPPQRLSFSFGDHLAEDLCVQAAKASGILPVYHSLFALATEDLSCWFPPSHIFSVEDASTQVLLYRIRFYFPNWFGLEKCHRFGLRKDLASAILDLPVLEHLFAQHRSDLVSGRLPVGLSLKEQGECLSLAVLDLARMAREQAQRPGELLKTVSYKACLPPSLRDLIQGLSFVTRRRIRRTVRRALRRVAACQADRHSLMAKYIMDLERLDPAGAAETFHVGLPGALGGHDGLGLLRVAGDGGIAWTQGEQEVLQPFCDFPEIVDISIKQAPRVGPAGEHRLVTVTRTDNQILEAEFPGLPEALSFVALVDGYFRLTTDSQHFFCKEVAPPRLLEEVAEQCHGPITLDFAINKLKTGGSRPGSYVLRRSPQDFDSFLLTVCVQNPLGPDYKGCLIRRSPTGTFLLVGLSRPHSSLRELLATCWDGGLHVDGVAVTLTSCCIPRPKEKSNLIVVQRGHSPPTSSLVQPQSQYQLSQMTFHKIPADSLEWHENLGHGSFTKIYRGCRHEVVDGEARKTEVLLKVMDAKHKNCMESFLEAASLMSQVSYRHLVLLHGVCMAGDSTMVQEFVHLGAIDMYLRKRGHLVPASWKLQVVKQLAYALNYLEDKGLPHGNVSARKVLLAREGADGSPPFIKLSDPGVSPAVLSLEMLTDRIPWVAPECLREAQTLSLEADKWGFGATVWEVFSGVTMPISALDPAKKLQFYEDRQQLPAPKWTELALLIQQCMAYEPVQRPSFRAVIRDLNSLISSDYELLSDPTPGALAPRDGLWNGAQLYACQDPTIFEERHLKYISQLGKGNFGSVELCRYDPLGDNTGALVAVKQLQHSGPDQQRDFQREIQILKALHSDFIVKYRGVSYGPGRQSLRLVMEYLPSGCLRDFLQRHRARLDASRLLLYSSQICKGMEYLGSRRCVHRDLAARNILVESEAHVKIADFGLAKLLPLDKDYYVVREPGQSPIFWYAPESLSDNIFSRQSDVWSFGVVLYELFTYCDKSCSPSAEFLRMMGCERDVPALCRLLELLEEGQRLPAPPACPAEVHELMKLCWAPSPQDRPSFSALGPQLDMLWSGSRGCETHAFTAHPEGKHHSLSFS

[19] = test system: KIT (human), P10721 [V560G]
KIT (human), P10721 [V560G], sequence (P10721 whole entry V560G, looked up): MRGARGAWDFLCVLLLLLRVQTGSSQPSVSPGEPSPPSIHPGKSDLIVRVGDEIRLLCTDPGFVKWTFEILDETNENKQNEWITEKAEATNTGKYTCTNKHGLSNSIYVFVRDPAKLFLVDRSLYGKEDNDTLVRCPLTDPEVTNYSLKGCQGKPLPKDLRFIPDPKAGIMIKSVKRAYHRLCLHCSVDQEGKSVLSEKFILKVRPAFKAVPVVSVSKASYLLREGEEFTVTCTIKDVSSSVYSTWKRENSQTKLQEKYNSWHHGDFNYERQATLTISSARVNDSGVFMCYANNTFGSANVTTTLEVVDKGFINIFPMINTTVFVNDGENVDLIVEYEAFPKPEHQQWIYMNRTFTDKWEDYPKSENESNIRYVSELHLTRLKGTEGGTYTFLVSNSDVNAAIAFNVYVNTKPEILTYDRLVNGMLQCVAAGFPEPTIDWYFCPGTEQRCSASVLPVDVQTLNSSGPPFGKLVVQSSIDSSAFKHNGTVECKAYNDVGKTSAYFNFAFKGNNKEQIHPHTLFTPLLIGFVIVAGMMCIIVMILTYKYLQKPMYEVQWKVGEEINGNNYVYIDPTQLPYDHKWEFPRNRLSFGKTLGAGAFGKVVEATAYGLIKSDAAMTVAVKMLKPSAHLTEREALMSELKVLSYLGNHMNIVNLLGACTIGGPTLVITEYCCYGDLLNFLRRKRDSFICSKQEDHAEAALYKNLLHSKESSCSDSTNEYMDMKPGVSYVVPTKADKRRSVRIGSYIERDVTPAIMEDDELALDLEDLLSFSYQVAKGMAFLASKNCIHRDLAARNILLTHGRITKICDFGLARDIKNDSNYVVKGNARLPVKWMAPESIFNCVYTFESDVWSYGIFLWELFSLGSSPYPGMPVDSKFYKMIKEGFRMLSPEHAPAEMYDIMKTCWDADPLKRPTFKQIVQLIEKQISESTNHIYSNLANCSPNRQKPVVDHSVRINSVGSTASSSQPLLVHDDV

[20] = biological target: MAP3K5 (human) (UniProt Q99683)
[21] = biological target: MAPK9 (human) (UniProt P45984)
[22] = biological target: MARK1 (human) (UniProt Q9P0L2)
[23] = biological target: MELK (human) (UniProt Q14680)
[24] = biological target: NUAK1 (human) (UniProt O60285)
[25] = biological target: PAK6 (human) (UniProt Q9NQU5)
[26] = test system: PDGFRA (human), P16234 [V561D]
[27] = biological target: PHKG2 (human) (UniProt P15735)
PHKG2 (human), sequence (P15735 whole entry, looked up): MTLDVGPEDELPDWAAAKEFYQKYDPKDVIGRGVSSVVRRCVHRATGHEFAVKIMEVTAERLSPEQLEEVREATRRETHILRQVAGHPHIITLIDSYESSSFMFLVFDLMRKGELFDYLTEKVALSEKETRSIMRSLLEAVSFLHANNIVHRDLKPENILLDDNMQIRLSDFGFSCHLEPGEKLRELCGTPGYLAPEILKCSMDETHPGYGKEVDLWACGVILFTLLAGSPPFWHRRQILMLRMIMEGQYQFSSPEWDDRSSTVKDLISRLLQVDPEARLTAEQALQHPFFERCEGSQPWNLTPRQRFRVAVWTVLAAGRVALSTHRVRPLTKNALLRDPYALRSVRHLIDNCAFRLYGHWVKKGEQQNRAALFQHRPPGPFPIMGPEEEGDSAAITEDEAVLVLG

[28] = biological target: PLK2 (human) (UniProt Q9NYY3)
[29] = biological target: PRKCE (human) (UniProt Q02156)
[30] = biological target: PRKCZ (human) (UniProt Q05513)
[31] = biological target: PRKD2 (human) (UniProt Q9BZL6)
[32] = biological target: PRKG1 (human) (UniProt Q13976)
[33] = biological target: PTK2 (human) (UniProt Q05397)
[34] = biological target: PTK6 (human) (UniProt Q13882)
[35] = biological target: RPS6KA4 KD1 KD2 (human) (UniProt O75676)
RPS6KA4 KD1 KD2 (human), sequence (O75676 whole entry, looked up): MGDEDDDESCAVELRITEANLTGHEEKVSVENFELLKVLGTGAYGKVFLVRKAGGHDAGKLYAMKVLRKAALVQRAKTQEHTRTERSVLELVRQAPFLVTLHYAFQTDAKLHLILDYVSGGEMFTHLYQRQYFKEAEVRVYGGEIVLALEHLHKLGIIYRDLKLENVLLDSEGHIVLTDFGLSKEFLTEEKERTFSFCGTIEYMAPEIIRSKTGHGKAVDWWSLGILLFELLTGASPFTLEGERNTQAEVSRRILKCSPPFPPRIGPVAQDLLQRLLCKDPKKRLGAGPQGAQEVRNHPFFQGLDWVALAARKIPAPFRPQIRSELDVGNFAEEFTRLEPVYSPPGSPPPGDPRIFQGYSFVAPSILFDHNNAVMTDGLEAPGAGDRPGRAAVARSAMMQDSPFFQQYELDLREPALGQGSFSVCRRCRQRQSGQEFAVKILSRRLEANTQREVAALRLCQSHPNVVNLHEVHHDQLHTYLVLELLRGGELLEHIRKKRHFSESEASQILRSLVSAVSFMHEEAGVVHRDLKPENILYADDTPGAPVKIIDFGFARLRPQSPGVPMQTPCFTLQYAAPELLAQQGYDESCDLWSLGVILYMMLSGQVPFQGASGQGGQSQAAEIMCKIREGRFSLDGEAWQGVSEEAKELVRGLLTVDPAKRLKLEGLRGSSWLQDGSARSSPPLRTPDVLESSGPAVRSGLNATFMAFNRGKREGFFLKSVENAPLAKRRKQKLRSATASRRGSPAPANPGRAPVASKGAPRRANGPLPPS

[36] = biological target: RPS6KA6 KD1 KD2 (human) (UniProt Q9UK32)
[37] = biological target: STK11 (human) (UniProt Q15831)
[38] = biological target: SYK (human) (UniProt P43405)
[39] = biological target: TAOK2 (human) (UniProt Q9UL54)
[40] = biological target: TNK2 (human) (UniProt Q07912)
[41] = biological target: TSSK1B (human) (UniProt Q9BXA7)

CDK3 CCNE1 (human), sequence (P24864 whole entry, looked up): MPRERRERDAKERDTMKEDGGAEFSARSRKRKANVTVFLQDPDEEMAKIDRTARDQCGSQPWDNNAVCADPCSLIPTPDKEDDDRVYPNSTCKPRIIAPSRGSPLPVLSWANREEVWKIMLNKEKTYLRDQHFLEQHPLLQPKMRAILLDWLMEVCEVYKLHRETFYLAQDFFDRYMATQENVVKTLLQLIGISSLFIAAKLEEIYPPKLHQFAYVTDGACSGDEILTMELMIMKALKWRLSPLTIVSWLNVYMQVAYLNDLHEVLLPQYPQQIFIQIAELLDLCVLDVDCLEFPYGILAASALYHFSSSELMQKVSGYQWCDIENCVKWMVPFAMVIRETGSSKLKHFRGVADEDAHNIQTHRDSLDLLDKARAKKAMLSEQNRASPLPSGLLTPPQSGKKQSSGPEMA
CDK3 CCNE1 (human), sequence (Q00526 whole entry, looked up): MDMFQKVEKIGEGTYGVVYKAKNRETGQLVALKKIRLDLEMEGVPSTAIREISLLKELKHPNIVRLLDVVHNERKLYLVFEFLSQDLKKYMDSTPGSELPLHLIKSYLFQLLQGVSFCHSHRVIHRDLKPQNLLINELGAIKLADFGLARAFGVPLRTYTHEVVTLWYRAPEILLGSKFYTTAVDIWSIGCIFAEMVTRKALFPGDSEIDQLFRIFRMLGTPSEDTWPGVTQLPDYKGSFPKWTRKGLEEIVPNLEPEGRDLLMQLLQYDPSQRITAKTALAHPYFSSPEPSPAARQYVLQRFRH

For `C[C@@H](Nc1nc2c(C#CC3CC3)c[nH]c(=O)c2c2cc(-c3cn[nH]c3)ccc12)C(C)(C)C`, the residual activity [1] was 71%, the residual activity [2] was 18% and the residual activity [3] was 55%. It also gave a residual activity [4] of 106%, a residual activity [5] of 108% and a residual activity [6] of 105%. The residual activity [7] was 97%, the residual activity [8] was 57% and the residual activity [9] was 100%. It also gave a residual activity [10] of 115%, a residual activity [11] of 68% and a residual activity [12] of 137%. It also gave a residual activity [13] of 6%, a residual activity [14] of 57% and a residual activity [15] of 2%. It also gave a residual activity [16] of 122%, a residual activity [17] of 113% and a residual activity [18] of 56%. The residual activity [19] was 9%, the residual activity [20] was 104% and the residual activity [21] was 116%. It also gave a residual activity [22] of 61%, a residual activity [23] of 67% and a residual activity [24] of 11%. It also gave a residual activity [25] of 103%, a residual activity [26] of 1% and a residual activity [27] of 76%. It also gave a residual activity [28] of 72%, a residual activity [29] of 106% and a residual activity [30] of 108%. It also gave a residual activity [31] of 96%, a residual activity [32] of 97% and a residual activity [33] of 75%. The residual activity [34] was 105%, the residual activity [35] was 61% and the residual activity [36] was 12%. It also gave a residual activity [37] of 96%, a residual activity [38] of 105% and a residual activity [39] of 101%. It also gave a residual activity [40] of 32% and a residual activity [41] of 75%.
